{"source": "paper PMC7055211", "about": "(Scientific Reports, 2020)", "system": "Mahoney strain of poliovirus", "format": "cell-based, Poliovirus Type I Mahoney", "details": "293 T; infectivity; PFU", "data": [{"smiles": "COc1ccc2[nH]c([S+]([O-])Cc3ncc(C)c(OC)c3C)nc2n1", "note": "(stereo not shown) [Tenatoprazole, tenatoprazole]", "values": [{"measurement": "Virus Production (resistant or susceptible), PV", "result": "Resistant"}]}]}
